From the CheMixHub viscosity set

Experiment: xn = mol fraction of the nth substance listed

CN(C)c1ccccc1 + CCCCCO
303.15 K, 101 kPa
Details | viscosity [mPa·s]
x1 = 0.0799 | 2.75
x1 = 0.121 | 2.704
x1 = 0.2034 | 2.605
x1 = 0.2784 | 2.506
x1 = 0.3584 | 2.392
x1 = 0.4284 | 2.284
x1 = 0.5047 | 2.158
x1 = 0.5722 | 2.039
x1 = 0.6406 | 1.913
x1 = 0.7103 | 1.777
x1 = 0.781 | 1.635
x1 = 0.8168 | 1.562
x1 = 0.9058 | 1.374

C=CC#N + CCCCO
viscosity [mPa·s], 101.33 kPa
Details | x1 = 0.1054 | x1 = 0.2059 | x1 = 0.305 | x1 = 0.4063 | x1 = 0.5073 | x1 = 0.6039 | x1 = 0.6962 | x1 = 0.8074 | x1 = 0.9006
298.15 K | 1.797 | 1.363 | 1.065 | 0.849 | 0.69 | 0.581 | 0.499 | 0.429 | 0.386
303.15 K | 1.596 | 1.221 | 0.965 | 0.776 | 0.637 | 0.539 | 0.468 | 0.407 | 0.369
308.15 K | 1.424 | 1.102 | 0.881 | 0.714 | 0.594 | 0.505 | 0.442 | 0.385 | 0.352

CC(=O)CC(C)=O + CCCCO
303.15 K, 101 kPa
Details | viscosity [mPa·s]
x1 = 0.0509 | 1.941
x1 = 0.1003 | 1.7
x1 = 0.3007 | 1.142
x1 = 0.5004 | 0.887
x1 = 0.7 | 0.751
x1 = 0.8998 | 0.692
x1 = 0.9504 | 0.678

CC(C)(C)Br + CCCCO
viscosity [mPa·s], 101.3 kPa
Details | x1 = 0.0518 | x1 = 0.106 | x1 = 0.2079 | x1 = 0.3109 | x1 = 0.4067 | x1 = 0.5054 | x1 = 0.6023 | x1 = 0.7004 | x1 = 0.7993 | x1 = 0.901
298.15 K | 2.264 | 2.002 | 1.638 | 1.377 | 1.203 | 1.055 | 0.9468 | 0.8591 | 0.7905 | 0.7428
313.15 K | 1.575 | 1.41 | 1.19 | 1.02 | 0.9075 | 0.8127 | 0.7355 | 0.6723 | 0.6264 | 0.5951

CCCCN(CCCC)CCCC + CCCCO
viscosity [mPa·s]
Details | 303.15 K | 313.15 K
101 kPa, x1 = 0.007767 | 2.245 | –
101 kPa, x1 = 0.01457 | 2.236 | –
101 kPa, x1 = 0.02285 | 2.226 | –
101 kPa, x1 = 0.03362 | 2.211 | –
101 kPa, x1 = 0.04436 | 2.197 | –
101 kPa, x1 = 0.04946 | 2.191 | –
101 kPa, x1 = 0.05954 | 2.178 | –
101 kPa, x1 = 0.07271 | 2.16 | –
101 kPa, x1 = 0.08924 | 2.138 | –
101.3 kPa, x1 = 0.0942 | 2.159 | 1.71
101.3 kPa, x1 = 0.1897 | 2.028 | 1.608
101.3 kPa, x1 = 0.3149 | 1.877 | 1.481
101.3 kPa, x1 = 0.4192 | 1.766 | 1.393
101.3 kPa, x1 = 0.5187 | 1.65 | 1.311
101.3 kPa, x1 = 0.618 | 1.542 | 1.231
101.3 kPa, x1 = 0.7149 | 1.448 | 1.154
101.3 kPa, x1 = 0.8007 | 1.365 | 1.102
101.3 kPa, x1 = 0.9031 | 1.256 | 1.047

CCCCOC(=O)c1ccccc1C(=O)OCCCC + CCCCO
303.15 K, 101.33 kPa
Details | viscosity [mPa·s]
x1 = 0.1016 | 2.585
x1 = 0.1991 | 3.095
x1 = 0.2997 | 3.757
x1 = 0.4016 | 4.553
x1 = 0.5004 | 5.431
x1 = 0.5969 | 6.463
x1 = 0.6966 | 7.645
x1 = 0.8044 | 9.216
x1 = 0.8662 | 10.27

CN(C)c1ccccc1 + CCCCO
303.15 K, 101 kPa
Details | viscosity [mPa·s]
x1 = 0.0489 | 2.2
x1 = 0.0742 | 2.187
x1 = 0.1249 | 2.156
x1 = 0.1802 | 2.12
x1 = 0.2362 | 2.079
x1 = 0.265 | 2.056
x1 = 0.2944 | 2.032
x1 = 0.3549 | 1.978
x1 = 0.419 | 1.915
x1 = 0.4854 | 1.844
x1 = 0.5905 | 1.722
x1 = 0.7423 | 1.526
x1 = 0.9099 | 1.295
